From ChEMBL document CHEMBL5512675, “Design of Selective PARP-1 Inhibitors and Antitumor Studies” (J Med Chem, 2024) come the findings set out here.

A value given as a limit tells only on which side of the number the result lay.

Data set [1] deals with Poly [ADP-ribose] polymerase 1 (Mus musculus, UniProt P11103). Description: Inhibition of recombinant mouse PARP-1 incubated for 16 hrs in presence of NAD+ by liquid scintillation spectrometry based scintillation proximity assay.
In data set [2] the target is Poly [ADP-ribose] polymerase 2 (Homo sapiens, UniProt Q9UGN5). Briefly: Inhibition of GST-tagged human PARP2 incubated for 30 mins by chemiluminescence based UV/visible spectrophotometric analysis.
Sequence of Poly [ADP-ribose] polymerase 2 (Q9UGN5 whole entry): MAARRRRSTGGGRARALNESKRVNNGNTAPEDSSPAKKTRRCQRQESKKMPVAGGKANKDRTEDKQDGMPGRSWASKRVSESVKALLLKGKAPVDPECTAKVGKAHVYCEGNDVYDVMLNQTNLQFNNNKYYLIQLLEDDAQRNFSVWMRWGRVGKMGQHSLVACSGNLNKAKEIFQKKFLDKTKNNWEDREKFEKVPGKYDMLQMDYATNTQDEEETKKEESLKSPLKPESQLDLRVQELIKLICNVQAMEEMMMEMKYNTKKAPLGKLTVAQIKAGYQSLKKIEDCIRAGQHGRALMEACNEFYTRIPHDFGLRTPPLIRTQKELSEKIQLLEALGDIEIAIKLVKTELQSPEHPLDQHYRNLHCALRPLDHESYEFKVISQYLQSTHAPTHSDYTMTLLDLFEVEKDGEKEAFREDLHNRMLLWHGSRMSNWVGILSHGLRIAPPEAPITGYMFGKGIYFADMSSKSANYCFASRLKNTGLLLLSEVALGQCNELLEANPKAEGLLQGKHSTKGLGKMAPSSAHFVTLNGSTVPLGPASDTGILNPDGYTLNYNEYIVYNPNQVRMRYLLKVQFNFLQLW
The target in data set [3] is Poly [ADP-ribose] polymerase 1 (Homo sapiens, UniProt P09874). Description: Inhibition of GST-tagged human PARP1 incubated for 30 mins by chemiluminescence based UV/visible spectrophotometric analysis.
Sequence of Poly [ADP-ribose] polymerase 1 (Homo sapiens, UniProt P09874) (P09874 whole entry): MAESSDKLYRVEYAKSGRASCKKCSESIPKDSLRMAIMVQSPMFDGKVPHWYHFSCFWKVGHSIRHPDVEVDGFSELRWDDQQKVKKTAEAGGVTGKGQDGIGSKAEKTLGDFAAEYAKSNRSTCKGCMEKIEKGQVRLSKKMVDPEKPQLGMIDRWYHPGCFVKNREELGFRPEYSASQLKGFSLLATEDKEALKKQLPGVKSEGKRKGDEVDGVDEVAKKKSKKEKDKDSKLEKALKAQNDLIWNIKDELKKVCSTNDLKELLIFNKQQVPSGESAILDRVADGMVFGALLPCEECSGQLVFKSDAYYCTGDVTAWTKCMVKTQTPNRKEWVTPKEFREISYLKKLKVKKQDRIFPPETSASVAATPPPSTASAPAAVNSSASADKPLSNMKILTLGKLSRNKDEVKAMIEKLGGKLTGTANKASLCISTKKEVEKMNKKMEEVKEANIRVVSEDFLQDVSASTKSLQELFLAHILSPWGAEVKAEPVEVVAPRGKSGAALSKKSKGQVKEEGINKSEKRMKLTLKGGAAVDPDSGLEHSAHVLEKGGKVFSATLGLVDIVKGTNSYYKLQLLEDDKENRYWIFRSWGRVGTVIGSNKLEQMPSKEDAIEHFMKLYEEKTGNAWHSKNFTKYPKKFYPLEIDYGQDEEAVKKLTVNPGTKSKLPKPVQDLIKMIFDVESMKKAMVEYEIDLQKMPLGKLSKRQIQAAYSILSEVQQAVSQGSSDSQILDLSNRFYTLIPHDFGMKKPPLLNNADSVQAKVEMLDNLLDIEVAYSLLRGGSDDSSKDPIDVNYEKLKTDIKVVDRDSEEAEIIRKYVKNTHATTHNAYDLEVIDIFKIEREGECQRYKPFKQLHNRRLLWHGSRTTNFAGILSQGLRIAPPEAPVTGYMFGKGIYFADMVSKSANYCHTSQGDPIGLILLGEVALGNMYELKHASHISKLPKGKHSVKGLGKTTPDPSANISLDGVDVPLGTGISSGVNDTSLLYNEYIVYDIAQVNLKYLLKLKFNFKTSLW
Data set [4] relates to SK-OV-3. Description: animal or person. The note with it: Mus musculus, SK-OV-3, po, 744 h, read-out: TGI.
Description: Antitumor activity against human SK-OV-3 cells xenografted in female BALB/c nude mouse assessed as tumor growth inhibition at 50 mg/kg, po administered via gavage once daily for 31 days relative to control
Data set [5] is described as follows: in vitro. The note with it: human, NCM460 cells.
Description: Cytotoxicity against human NCM460 cells assessed as inhibition of cell proliferation incubated for 72 hrs
For the next data set, the system named is CAPAN-1. Briefly: cells. Particulars: Homo sapiens, CAPAN-1, 72 h.
The next data set relates to C-33-A. Briefly: cells. The note with it: Homo sapiens, 72 h.
The test system of a further data set is A549. Description: cells. The note with it: Homo sapiens, A549, 72 h.
Data set [6] has as its system SK-OV-3. Description: cells. Particulars: Homo sapiens, SK-OV-3, 72 h.
Description: Antiproliferative activity against human SK-OV-3 cells assessed as inhibition of cell proliferation incubated for 72 hrs
The next data set has as its system SiHa. Briefly: cells. The note with it: Homo sapiens, 72 h.
Data set [7] in a line: Inhibition of PARP1 Ala755Gln, Gln759Ser and Val762Ile mutant (unknown origin) incubated for 1 hrs in presence of NAD and DNA by ELISA.
Another data set deals with HCT-116. Description: cells. Particulars: Homo sapiens, HCT-116, 72 h.
A further data set has as its system HCC1937. Description: cells. The note with it: Homo sapiens, HCC1937, 72 h.
The nature of data set [8]: in vitro. The note with it: human, H8 cells.
Description: Cytotoxicity against human H8 cells assessed as inhibition of cell proliferation incubated for 72 hrs

Sequence of Poly [ADP-ribose] polymerase 1 (Mus musculus, UniProt P11103) (P11103 whole entry): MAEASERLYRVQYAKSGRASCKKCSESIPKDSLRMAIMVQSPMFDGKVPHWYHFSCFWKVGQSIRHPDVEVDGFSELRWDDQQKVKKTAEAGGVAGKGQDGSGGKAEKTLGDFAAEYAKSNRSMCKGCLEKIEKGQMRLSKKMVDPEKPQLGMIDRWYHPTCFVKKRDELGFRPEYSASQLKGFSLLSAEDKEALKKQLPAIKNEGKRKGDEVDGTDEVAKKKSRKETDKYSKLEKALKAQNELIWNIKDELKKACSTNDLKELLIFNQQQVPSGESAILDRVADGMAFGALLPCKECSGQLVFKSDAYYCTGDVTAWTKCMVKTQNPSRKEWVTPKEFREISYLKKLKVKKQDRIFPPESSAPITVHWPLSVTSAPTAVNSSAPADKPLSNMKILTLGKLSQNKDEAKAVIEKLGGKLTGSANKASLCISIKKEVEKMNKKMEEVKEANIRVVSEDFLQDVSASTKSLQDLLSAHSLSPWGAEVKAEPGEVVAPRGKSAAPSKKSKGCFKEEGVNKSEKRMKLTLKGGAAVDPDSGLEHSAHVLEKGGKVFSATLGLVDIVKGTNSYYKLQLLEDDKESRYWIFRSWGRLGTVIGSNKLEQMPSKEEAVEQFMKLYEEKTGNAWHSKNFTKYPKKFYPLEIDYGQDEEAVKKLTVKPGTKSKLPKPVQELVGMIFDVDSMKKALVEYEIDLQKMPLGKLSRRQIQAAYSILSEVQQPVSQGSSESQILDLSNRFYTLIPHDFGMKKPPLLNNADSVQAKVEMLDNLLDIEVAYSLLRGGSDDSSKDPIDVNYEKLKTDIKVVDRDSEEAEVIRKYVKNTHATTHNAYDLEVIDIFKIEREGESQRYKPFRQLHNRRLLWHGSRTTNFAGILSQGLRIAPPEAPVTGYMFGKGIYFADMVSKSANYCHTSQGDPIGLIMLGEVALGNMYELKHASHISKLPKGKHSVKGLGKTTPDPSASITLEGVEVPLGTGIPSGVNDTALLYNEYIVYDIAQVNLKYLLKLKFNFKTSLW
Description for A549: Antiproliferative activity against human A549 cells assessed as inhibition of cell proliferation incubated for 72 hrs
Description for C-33-A: Antiproliferative activity against human C-33-A cells assessed as inhibition of cell proliferation incubated for 72 hrs
Description for CAPAN-1: Antiproliferative activity against human CAPAN-1 cells harboring BRCA1 mutant assessed as inhibition of cell proliferation incubated for 72 hrs
Description for HCC1937: Antiproliferative activity against human HCC1937 cells harboring BRCA2 mutant assessed as inhibition of cell proliferation incubated for 72 hrs
Description for HCT-116: Antiproliferative activity against human HCT-116 cells assessed as inhibition of cell proliferation incubated for 72 hrs
Description for SiHa: Antiproliferative activity against human SiHa cells assessed as inhibition of cell proliferation incubated for 72 hrs

`Cn1cccc1/C=C1\C(=O)NC(=O)c2ccccc21`: the IC50 in [1] was 4790 nM.

As for `COc1cc(/C=N/NC(N)=S)c(Br)c(Br)c1OC`, the concentration for half-maximal inhibition (IC50) is 1560 nM in data set [2] and 42.9 nM in [3]. In addition, in the data set on SK-OV-3 [4], the inhibition in vivo at 50 mg/kg came to 57.4%.

Regarding `COc1cc(-c2nc3c(C(N)=O)cccc3[nH]2)cc(Br)c1OC(=O)C(C)(C)C`, the half-inhibitory concentration (IC50) in data set [2] stood at 2070 nM; in [3], 33.2 nM.

Consider `COc1cc(-c2nc3c(C(N)=O)cccc3[nH]2)cc(Br)c1OS(=O)(=O)c1c(C)cc(C)cc1C`, for which the IC50 in data set [2] was found to be 1780 nM; in [3], 33.7 nM.

Turning to `CCCS(=O)(=O)Oc1c(Br)cc(-c2nc3c(C(N)=O)cccc3[nH]2)cc1OC`, the concentration for half-maximal inhibition (IC50) in data set [2] was found to be 760 nM; in [3], 50.5 nM.

For `O=C(c1cc(Cc2n[nH]c(=O)c3ccccc23)ccc1F)N1CCN(C(=O)C2CC2)CC1` [OLAPARIB], the IC50 at 72 h in the data set “in vitro [5]” and in the data set “in vitro [8]” was > 200000 nM throughout. The half-inhibitory concentration (IC50) was 60700 nM in the data set on CAPAN-1; > 200000 nM in the data set with C-33-A; > 200000 nM in the data set with A549; 167000 nM in the data set with SK-OV-3 [6]; > 200000 nM with SiHa; 10.4 nM in data set [7]. Also, the IC50 with HCT-116 was > 200000 nM; with HCC1937 it was 22000 nM.
